Reference: publication PMC10003747, “A Novel Homodimer Peptide–Drug Conjugate Improves the Efficacy of HER2-Positive Breast Cancer Therapy” (International Journal of Molecular Sciences, 2023)
pIC50: −log10 of the molar value.

Experiments:
BALB/c nude mice = assay: In vivo safety: body weight and H&E staining of major organs; settings: 5 mg/kg equivalent DOX i.v., five times every two days; for body weight change versus PBS group: n = 4; for H&E histology of major organs: compared with PBS group
Protocol: (§1) In vivo anti-tumor studies were evaluated by using SKBR-3 xenografted (BALB/c nude) mice treated with the PDC, free DOX, or saline. […] Additionally, histological examination of the tumors was performed. […] A TUNEL assay indicated a greater number of apoptotic cells after treatments with the PDC group compared to the free DOX group and reduced the offtarget effects (Figure 5d).
Good biocompatibility and the acceptable biosafety of a drug are essential for its biological application. […] The PDC had higher in vivo anti-tumor efficacy than DOX without apparent toxicities.
(§2) In this study, a total of 12 female BALB/c mice (22–24 g) were used, and all animal experiments were conducted in compliance with the ethical guidelines approved by the ethics committee of Fujian Medical University. Approximately 2 × 10^6 SKBR-3 cells were injected subcutaneously in the right hind limb of the nude mice. Upon the tumor reaching a volume of around 100 mm^3, the mice were randomly allocated into three groups (n = 4) and administered through the tail vein with PBS, free DOX solution, and PDC solution (5 mg/kg equivalent DOX), respectively, five times every two days. Saline was used as a negative control. After each administration, the size and weight of the tumor were assessed. Subsequently, the mice were euthanized, and their tumor tissues and other major organs were dissected and preserved with 4% formaldehyde. Paraffin sections were then produced, and the fixed paraffin-embedded tissues were sliced into 5 μm sections for hematoxylin and eosin (H&E) and TUNEL (terminal deoxynucleotidyl transferase dUTP nick-end labeling) analyses.

[1] = test system: SKBR-3 xenografted (BALB/c nude) mice; assay: In vivo anti-tumor study; settings: SKBR-3 xenograft, 5 mg/kg equivalent DOX, tail vein, five times every two days, n = 4, day 14
Protocol: as §1
as §2, with “Paraffin sections were then produced, and the fixed paraffin-embedded tissues were sliced into 5 μm sections for hematoxylin and eosin (H&E) and TUNEL (terminal deoxynucleotidyl transferase dUTP nick-end labeling) analyses.” left out

SKBR-3 cells [2] = assay: Cytotoxicity assay (CCK8 kit); format: cell-based, human; settings: for pIC50: 48 h incubation, 0 to 1 μM, CCK8, from dose response log curves
Source text: (§3) Based on the specific acidic tumor microenvironment (pH5.4–7.0), an acid-responsive linker was designed to undergo acid hydrolysis after cellular uptake, releasing the drug into endosomes or lysosomes to achieve site-specific delivery. It is theoretically possible that a HPD with an acid-sensitive hydrazone bond can display a regulated release behavior when the external pH value is altered. As observed from the drug release profile in Figure 3a, the PDC remains structurally stable in PBS at a pH of 7.4, as only about 35% of DOX is released within 24 h. In contrast, when the pH of PBS is reduced to 5.8, there is an explosive release of DOX in acidic media due to the pH-sensitive hydrolysis of the […] bond between DOX and the EMCH linker. […] Figure 3b illustrates that the cytotoxicity of the PDC and free DOX on SKBR-3 cells augmented with prolonged incubation time. When the equivalent concentration was 1 μM, the viability of SKBR-3 cells in the PDC group was 26.3%. […] To determine if our novel conjugate could enhance the effect of DOX through PEGylation and HER2-receptor-mediated internalization, we tested the cytotoxic effect of the PDC on MCF-7 and SKBR-3 breast cancer cells.
Cultures of SKBR-3 and MCF-7 cells were established in DMEM medium supplemented with 10% fetal bovine serum, 100 U/mL penicillin, and 100 μg/mL streptomycin at 37 °C and 5% CO2. Approximately 1 × 10^5 cells/mL were seeded into culture dishes and incubated overnight. Subsequently, 0.5 mg/mL PDC was added and incubated for 2–8 h in conjunction with an equal amount of free DOX as a control. After washing three times with PBS, Hoechst 33342 and LysoTracker Green DND-26 were added to stain the nucleus and lysosome for 15 min, followed by three additional washes with PBS. Finally, confocal fluorescence images were obtained using a Zeiss 710 system. SKBR-3 cells were seeded in a 96-well culture plate at a density of 5000 cells per well and incubated for 24 h. Afterwards, cytotoxicity investigations were conducted by incubating the cells with the PDC and free DOX (in concentrations from 0 to 1 μM) for 48 h. Then, the CCK8 kit was used to detect cell survival.

[3] = Stability of the PDC in human serum/plasma by HPLC; format: in vitro ADME; settings: human serum (methods: human plasma), 37 °C
Source text: HP (calcd Mw: 3183.7) was successfully synthesized by using solid-phase peptide synthesis (SPPS), and the peptides were cleaved and purified by HPLC (Figure S2) afterward and verified by using electrospray ionization mass spectrometry examinations (Figure 2a). […] The mass charge ratio (m/z) obtained by the experiment is consistent with the theoretical m/z. […] Polyethylene glycol (PEG) has been widely used to modify small molecules to slow renal clearance and to increase the half-life. It is essential that the PDC be maintained in a steady circulation to prevent pre-release of cytotoxic payloads, resulting in systemic toxicity. […] To assess plasma stability, the PDC was incubated with human serum at 37 °C from 0 to 48 h, and aliquots were taken at different time points and analyzed by using HPLC. […]
To quantify the amount of DOX released from the PDC, 1 mg of the substance was dissolved in 2 mL of ultra-pure water and placed into a dialysis bag (MWCO 1000 Da). […] The samples were analyzed for released DOX concentration using a fluorescence spectrophotometer at 589 nm and the DOX concentration was calculated based on a standard curve. […] After centrifugation at 13,000× g for 10 min, the supernatant was collected and the intact percentage of the PDC was detected by HPLC [19].

SKBR-3 cells [4] = assay: Cellular uptake and lysosome colocalization by CLSM; format: cell-based, human
Protocol: To assess the uptake efficiency of the PDC in tumor cells, human breast cancer cell lines SKBR-3 (high expression of HER2) were used as positive cells, and the MCF-7 cell line was used as a negative control. […] Along with the incubation time, DOX escaped from the lysosomes, and brighter red fluorescence was detected in the nuclei after 8 h of incubation (Figure 4a). It has been observed that peptide conjugates in the acidic environment of endosomes/lysosomes undergo hydrolysis at the acid-response hydrazone linker, thereby releasing DOX into cells, which is in line with prior reports. […] The lysosomal escape ability was evaluated by the localization of the PDC and lysosomes in SKBR-3 cells (Figure 4c), evidenced by the separation of red (DOX) and green (LysoTracker) fluorescence.
Cultures of SKBR-3 and MCF-7 cells were established in DMEM medium supplemented with 10% fetal bovine serum, 100 U/mL penicillin, and 100 μg/mL streptomycin at 37 °C and 5% CO2. Approximately 1 × 10^5 cells/mL were seeded into culture dishes and incubated overnight. Subsequently, 0.5 mg/mL PDC was added and incubated for 2–8 h in conjunction with an equal amount of free DOX as a control. […] Finally, confocal fluorescence images were obtained using a Zeiss 710 system. […]

[5] = In vitro DOX release from the PDC (dialysis in PBS); format: physicochemical; settings: fluorescence at 589 nm
Source text: as §3
To quantify the amount of DOX released from the PDC, 1 mg of the substance was dissolved in 2 mL of ultra-pure water and placed into a dialysis bag (MWCO 1000 Da). This bag was then transferred to a tube containing 10 mL of PBS solution with varying pH values (7.4 and 5.8). The tube was stirred at 37 °C in the dark and samples of the PBS solution were collected at different intervals. Subsequently, a new 10 mL of PBS was added to the tube after each sample. The samples were analyzed for released DOX concentration using a fluorescence spectrophotometer at 589 nm and the DOX concentration was calculated based on a standard curve. The PDC was incubated with human plasma (final peptide concentration of 50 μM) for 0, 2, 4, 8, 12, 24, and 48 h in order to assess the stability of the conjugate. Then, […] of the solution was mixed with […] of methanol to terminate enzymatic hydrolyses. After centrifugation at 13,000× g for 10 min, the supernatant was collected and the intact percentage of the PDC was detected by HPLC [19].

## COc1cccc2c1C(=O)c1c(O)c3c(c(O)c1C2=O)C[C@@](O)(C(=O)CO)C[C@@H]3O[C@H]1C[C@H](N)[C@H](O)[C@H](C)O1.Cl [free DOX, doxorubicin hydrochloride, reference compound]
BALB/c nude mice
  body weight change versus PBS group: significantly decreased
  H&E histology of major organs: clear cardiotoxicities
[1]
  reduction of tumor growth on day 14 post treatment: 23.13 ± 2.4%
SKBR-3 cells [2]; SKBR-3 cells
  pIC50: 6.39

## COc1cccc2c1C(=O)c1c(O)c3c(c(O)c1C2=O)C[C@@](O)(C(CO)=NNC(=O)CCCCCN1C(=O)CC(SC[C@H](NC(=O)CCOCCOCCOCCOCCNC(=O)[C@H](CCCCNC(=O)CCOCCOCCOCCOCCNC(=O)[C@H](CCCCN)NC(=O)[C@H](CC(C)C)NC(=O)[C@H](CCCNC(=N)N)NC(=O)[C@H](CC(C)C)NC(=O)[C@H](CCC(=O)O)NC(=O)[C@H](Cc2c[nH]c4ccccc24)NC(=O)[C@H](CC(N)=O)NC(=O)[C@@H](N)CCCNC(=N)N)NC(=O)CCOCCOCCOCCOCCNC(=O)[C@H](CCCCN)NC(=O)[C@H](CC(C)C)NC(=O)[C@H](CCCNC(=N)N)NC(=O)[C@H](CC(C)C)NC(=O)[C@H](CCC(=O)O)NC(=O)[C@H](Cc2c[nH]c4ccccc24)NC(=O)[C@H](CC(N)=O)NC(=O)[C@@H](N)CCCNC(=N)N)C(=O)O)C1=O)C[C@@H]3O[C@H]1C[C@H](N)[C@H](O)[C@H](C)O1 (stereo partly shown) [PDC]
BALB/c nude mice
  body weight change versus PBS group: no noteworthy distinction in body weight
  H&E histology of major organs: no morphological aberrations in organ tissues
[1]
  reduction of tumor growth on day 14 post treatment: 51.1 ± 3.1%
[3]; 50 μM final peptide concentration, 0-48 h, methanol quench, intact PDC by HPLC, read-out: half-life of the conjugate (converted)
  half-life at 50 μM: ~24 h
[3]; 50 μM, 48 h incubation, HPLC, read-out: intact conjugate remaining at 48 h
  remaining at 48 h, 50 μM: ~15%
SKBR-3 cells [4]; CLSM, Figure S3, HER2 negative MCF-7
  uptake of the PDC in SKBR-3 versus MCF-7 cells: higher uptake rate
SKBR-3 cells [4]; HER2-positive SKBR-3 cells
  cellular uptake relative to free DOX: 2.9 times
[5]; PBS pH 5.8, 37 °C, dialysis MWCO 1000 Da, 8 h
  DOX released within 8 h, pH 5.8: 78%
[5]; PBS pH 5.8, 37 °C, dialysis MWCO 1000 Da, 24 h
  DOX released within 24 h, pH 5.8: ~90%
[5]; PBS pH 5.8, 37 °C, dialysis MWCO 1000 Da, early value, time not given
  DOX released, pH 5.8, start of the rise: around 20%
[5]; PBS pH 7.4, 37 °C, dark, dialysis bag MWCO 1000 Da, 1 mg in 2 mL water against 10 mL PBS, 24 h
  DOX released within 24 h, pH 7.4: about 35%
SKBR-3 cells [2]; 48 h, Figure S4, HER2 high-expression SKBR-3 vs MCF-7
  cytotoxic effect on SKBR-3 versus MCF-7 breast cancer cells: significantly more cytotoxic in the HER2 high-expression cell lines
SKBR-3 cells [2]; SKBR-3 cells, 48 h
  IC50 of the PDC relative to free DOX: three times less
SKBR-3 cells [2]; SKBR-3 cells
  pIC50: 6.84
SKBR-3 cells [2]; equivalent concentration 1 μM, 48 h, CCK8
  viability of SKBR-3 cells: 26.3%
